Test results published in US20230263825A1, “ANTI-CANCER ACTIVITY OF PERBORATE SALTS” (priority 2020, published 2023).
“Also recorded” adds a separate entry of the source.

Test: Toxicology in rats, oral, histopathology
Format: in vivo
Source text: After 32 days, the rats were sacrificed and their organs were examined under a microscope.

## O.O.O.O.[Na+].[O-]B1OO1 [sodium perborate tetrahydrate]
rat, in vivo, po, 4 mg/kg
  KIDNEY Edema, No Exam: 0/10
  KIDNEY Notable or abnormal, %: 0%
  KIDNEY Notable or abnormal, No Exam: 0/10
  KIDNEY Within normal limits, %: 100%
  KIDNEY Within normal limits, No Exam: 10/10
  LIVER Fattening, %: 0%
  LIVER Fattening, No Exam: 0/10
  LIVER Infiltration, %: 0%
  LIVER Infiltration, No Exam: 0/10
  LIVER Notable or abnormal, %: 0%
  LIVER Notable or abnormal, No Exam: 0/10
  LIVER Within normal limits, %: 100%
  LIVER Within normal limits, No Exam: 10/10
  LUNG Lymphocytic infiltration, %: 0%
  LUNG Lymphocytic infiltration, No Exam: 0/10
  LUNG Notable or abnormal, %: 0%
  LUNG Notable or abnormal, No Exam: 0/10
  LUNG Pulmonary edema, %: 0%
  LUNG Pulmonary edema, No Exam: 0/10
  LUNG Within normal limits, %: 100%
  LUNG Within normal limits, No Exam: 10/10
  PANCREAS Notable or abnormal, %: 0%
  PANCREAS Notable or abnormal, No Exam: 0/10
  PANCREAS Within normal limits, %: 100%
  PANCREAS Within normal limits, No Exam: 10/10
  SPLEEN Notable or abnormal, %: 0%
  SPLEEN Notable or abnormal, No Exam: 0/10
  SPLEEN Within normal limits, %: 100%
  SPLEEN Within normal limits, No Exam: 10/10
  STOMACH Notable or abnormal, %: 0%
  STOMACH Notable or abnormal, No Exam: 0/10
  STOMACH Within normal limits, %: 100%
  STOMACH Within normal limits, No Exam: 10/10
rat, in vivo, po, 8 mg/kg/day
  HEART Notable or abnormal, %: 0%
  HEART Notable or abnormal, No Exam: 0/10
  HEART Within normal limits, %: 100%
  HEART Within normal limits, No Exam: 10/10
  INTESTINE, Large Notable or abnormal, %: 0%
  INTESTINE, Large Notable or abnormal, No Exam: 0/10
  INTESTINE, Large Within normal limits, %: 100%
  INTESTINE, Large Within normal limits, No Exam: 10/10
  INTESTINE, Small Enteritis, %: 10%
  INTESTINE, Small Enteritis, No Exam: 1/10
  INTESTINE, Small Notable or abnormal, %: 10%
  INTESTINE, Small Notable or abnormal, No Exam: 1/10
  INTESTINE, Small Within normal limits, %: 90%
  INTESTINE, Small Within normal limits, No Exam: 9/10
  KIDNEY Edema, %: 0%
  KIDNEY Edema, No Exam: 0/10
  KIDNEY Notable or abnormal, %: 0%
  KIDNEY Notable or abnormal, No Exam: 0/10
  KIDNEY Within normal limits, %: 100%
  KIDNEY Within normal limits, No Exam: 10/10
  LIVER Fattening, %: 0%
  LIVER Fattening, No Exam: 0/10
  LIVER Infiltration, %: 0%
  LIVER Infiltration, No Exam: 0/10
  LIVER Notable or abnormal, %: 0%
  LIVER Notable or abnormal, No Exam: 0/10
  LIVER Within normal limits, %: 100%
  LIVER Within normal limits, No Exam: 10/10
  LUNG Lymphocytic infiltration, %: 0%
  LUNG Lymphocytic infiltration, No Exam: 0/10
  LUNG Notable or abnormal, %: 0%
  LUNG Notable or abnormal, No Exam: 0/10
  LUNG Pulmonary edema, %: 0%
  LUNG Pulmonary edema, No Exam: 0/10
  LUNG Within normal limits, %: 100%
  LUNG Within normal limits, No Exam: 10/10
  PANCREAS Notable or abnormal, %: 0%
  PANCREAS Notable or abnormal, No Exam: 0/10
  PANCREAS Within normal limits, %: 100%
  PANCREAS Within normal limits, No Exam: 10/10
  SPLEEN Notable or abnormal, %: 0%
  SPLEEN Notable or abnormal, No Exam: 0/10
  SPLEEN Within normal limits, %: 100%
  SPLEEN Within normal limits, No Exam: 10/10
  STOMACH Notable or abnormal, %: 0%
  STOMACH Notable or abnormal, No Exam: 0/10
  STOMACH Within normal limits, %: 100%
  STOMACH Within normal limits, No Exam: 10/10
rats, oral 0.125 mg/kg/day to 8 mg/kg/day, 32 days
  histopathology overall: toxicity to healthy tissues / organ damage: no significant organ damage; also recorded: no significant toxicity to healthy tissues
